Where two headings read alike, the source gives them in different places.
Experiments:
[1] = biological target: TNF-α converting enzyme (TACE) (Homo sapiens, UniProt P78536); assay: Test procedure for measuring TACE inhibition (fluorescent peptidyl substrate); assay type: biochemical; settings: for inhibition at 10 µM: % @ 10µM per footnote a, read-out: TACE IC50
THP-1 cells = assay: Human monocytic THP-1 cell differentiation assay for soluble proteins (THP soluble protein assay), LPS-stimulated, TNF-α ELISA; assay type: cell-based; settings: for THP (% inhibition): Table 1, concentration not given; for inhibition at 3 µM: Homo sapiens, THP-1; at 3 uM; percent change from vehicle positive control; read-out: TNFalpha at 3 uM) THP (percent change)
Description: Mitogenic stimulation of THP-1 cells cause differentiation into macrophage like cells with concomitant secretion of tumor necrosis factor (TNF-a) and TNF receptor (TNF-R p75/80 and TNF-R p55/60) and Interleukin-8 (IL-8), among other proteins. In addition, non-stimulated THP-1 cells shed both the p75/80 and the p55/60 receptors over time. The release of membrane bound TNF-a and possibly TNF-R p75/80 and TNF-R p55/60, but not IL-8, is mediated by an enzyme called TNF-α converting enzyme or TACE.
THP-1 cells (from ATCC) are a human monocytic cell line which were obtained from the peripheral blood of a person with acute monocytic leukemia. They can be grown in culture and differentiated into macrophage like cells by stimulation with mitogens.
Each vial of cells are cultured for about two weeks prior to being used for an assay and then are used for only 4 to 6 weeks to screen compounds.
Cell exposure to DMSO was limited to 0.1 % final concentration. […] Compounds can be evaluated for their effect on basal (non-stimulated) shedding of the receptors by replacing the LPS with […] of THP-1 media. Plates are placed into an incubator set at 5% CO2 and at 37°C. After 4 hours of incubation, […] of tissue culture supernatant (TCS) is removed for use in an TNF-α ELISA. Following 24 hours of incubation, […] of TCS is removed and used for analysis in TNF-R p75/80, TNF-R p55/60 and IL-8 ELISAs.
In addition, at the 24 hours timepoint, and the cells for each treatment group are collected by resuspension in 500 µl/well of THP-1 media and transferred into a FACS tube. […] The samples are run on a Becton Dickinson FaxCaliber FLOW cytometry machine and the amount of dye taken up by each cell is measured in the high red wavelength (FL3). Only cells with compromised membranes (dead or dying) can take up PI. The percent of live cells is calculated by the number of cells not stained with PI, divided by the total number of cells in the sample. The viability values calculated for the drug treated groups were compared to the viability value calculated for the vehicle treated mitogen stimulated group ("vehicle positive control") to determine the "percent change from control". This "percent change from control" value is an indicator of drug toxicity.
The quantity of soluble TNF-α, TNF-R p75/80 and TNF-R p55/60 and IL-8 in the TCS of the THP-1 cell cultures are obtained with commercially available ELISAs from R&D Systems, by extrapolation from a standard curve generated with kit standards. The number of cells that either take up or exclude PI are measured by the FLOW cytometry machine and visualized by histograms using commercially available Cytologic software for each treatment group including all controls.
Biological variability in the magnitude of the response of THP-1 cell cultures requires that experiments be compared on the basis of percent change from "vehicle positive control" for each drug concentration. Percent change in each soluble protein evaluated from the "vehicle positive control" was calculated for each compound concentration with the following formula: % Change =(pg/ml (compound) - pg/ml (veh pos control))/(pg/ml (veh pos control) - pg/ml (veh neg control))x 100 [formula]
For the soluble protein (TNF-a, p75/80, p55/60, IL-8) studies under stimulated conditions, the mean pg/ml of duplicate wells were determined and the results expressed as percent change from "vehicle positive control". For the soluble protein (p75/80 and p55/60 receptors) studies under non-stimulated conditions, the mean pg/ml of duplicate wells were determined and the results expressed as percent change from […] utilizing the following formula: % Change =(pg/ml (compound neg control) - pg/ml (veh neg control))/(pg/ml (veh neg control))X 100 [formula]
IC50 values for each compound are calculated by non-linear regression analysis using customized software utilizing the JUMP statistical package.

MMP-1 = biological target: T1, MMP-1 (Homo sapiens, UniProt P03956); assay: MMP-1 inhibition (thiopeptide or fluorescent peptide substrate); settings: for inhibition at 10 µM: read-out: MMP1
T1 sequence (P03956 100-469): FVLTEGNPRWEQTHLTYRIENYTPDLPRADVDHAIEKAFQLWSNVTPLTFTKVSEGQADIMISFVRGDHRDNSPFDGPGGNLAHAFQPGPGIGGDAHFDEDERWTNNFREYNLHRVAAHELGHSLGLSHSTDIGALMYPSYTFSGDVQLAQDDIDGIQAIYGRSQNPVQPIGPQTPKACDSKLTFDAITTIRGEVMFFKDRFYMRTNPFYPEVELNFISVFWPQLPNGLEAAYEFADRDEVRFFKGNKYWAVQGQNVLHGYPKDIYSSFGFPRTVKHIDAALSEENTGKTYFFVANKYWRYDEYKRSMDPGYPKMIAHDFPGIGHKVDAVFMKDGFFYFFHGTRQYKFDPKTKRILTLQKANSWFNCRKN
Description: The enzyme activity is measured by the rate of the color increase. The thiopeptide substrate is made up fresh as a 20 mM stock in 100% DMSO and the DTNB is dissolved in 100% DMSO as a 100 mM stock and stored in the dark at room temperature. Both the substrate and DTNB are diluted together to 1 mM with substrate buffer (50 mM HEPES pH 7.5, 5 mM CaCl2) before use. The stock of enzyme is diluted with buffer (50 mM HEPES, pH 7.5, 5 mM CaCl2, 0.02% Brij) to the desired final concentration.
Alternatively, a fluorescent peptide substrate is used. In this test procedure, the peptide substrate contains a fluorescent group and a quenching group. Upon cleavage of the substrate by an MMP, the fluorescence that is generated is quantitated on the fluorescence plate reader. The assay is run in HCBC assay buffer (50mM HEPES, pH 7.0, 5 mM Ca^+2, 0.02% Brij, 0.5% Cysteine), with human recombinant MMP-1, MMP-9, or MMP-13. The substrate is dissolved in methanol and stored frozen in 1 mM aliquots. For the assay, substrate and enzymes are diluted in HCBC buffer to the desired concentrations. Compounds are added to the 96 well plate containing enzyme and the reaction is started by the addition of substrate.
For either the thiopeptide or fluorescent peptide test procedures, the slope of the line is calculated and represents the reaction rate. […] The mean (x±sem) of the control rate is calculated and compared for statistical significance (p<0.05) with drug-treated rates using Dunnett's multiple comparison test.

MMP-13 = MMP-13 (Homo sapiens, UniProt P45452); assay: MMP-13 inhibition (thiopeptide or fluorescent peptide substrate); assay type: biochemical; settings: read-out: MMP13; for inhibition at 1 µM: % at 1 um (specified in cell); for inhibition at 10 µM: % @ 10µM per footnote a
Description: Alternatively, a fluorescent peptide substrate is used.

[2] = second table, IC50 (nM) per footnote a

Chain of TNF-α converting enzyme (TACE) (P78536 215-824): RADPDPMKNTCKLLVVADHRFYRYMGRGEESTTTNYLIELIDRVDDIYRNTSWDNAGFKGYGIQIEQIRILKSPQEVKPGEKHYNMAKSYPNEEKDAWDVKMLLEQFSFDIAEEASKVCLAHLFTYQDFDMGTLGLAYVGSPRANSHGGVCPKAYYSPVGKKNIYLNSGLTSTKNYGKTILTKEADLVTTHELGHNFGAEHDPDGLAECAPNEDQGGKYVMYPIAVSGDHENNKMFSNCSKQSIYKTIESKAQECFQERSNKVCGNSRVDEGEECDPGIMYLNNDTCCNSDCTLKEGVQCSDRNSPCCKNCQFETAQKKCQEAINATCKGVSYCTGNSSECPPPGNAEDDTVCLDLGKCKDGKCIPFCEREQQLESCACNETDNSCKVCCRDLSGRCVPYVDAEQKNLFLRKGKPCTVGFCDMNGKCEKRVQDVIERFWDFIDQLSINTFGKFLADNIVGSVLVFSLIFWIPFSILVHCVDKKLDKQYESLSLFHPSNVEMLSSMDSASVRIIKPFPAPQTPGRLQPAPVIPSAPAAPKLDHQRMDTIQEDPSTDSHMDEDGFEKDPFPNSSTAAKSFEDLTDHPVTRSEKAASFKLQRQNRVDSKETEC

| SMILES | inhibition at 10 µM (MMP-1) | IC50 [1, 2] | inhibition at 10 µM (MMP-13) | inhibition at 3 µM (THP-1 cells) | further results |
| --- | --- | --- | --- | --- | --- |
| CC#CCOc1ccc(SC(C)C(=O)NO)cc1 (stereo not drawn) [Example 4, 2-(4-But-2-ynyloxy-phenylsulfanyl)-N-hydroxy-propionamide] |  |  |  |  | IC50 ([1]; Table 1): 47.2 nM; THP (% inhibition) (THP-1 cells): 2% |
| CC#CCOc1ccc([S+]([O-])[C@@H](C(=O)NO)c2ccc(-c3cccs3)cc2)cc1 (stereo partly drawn) [Example 90, (2R)-2-{[4-(2-butynyloxy)phenyl]sulfinyl}-N-hydroxy-2-[4-(2-thienyl)phenyl] ethanamide] | 7% |  |  | 1% | inhibition at 1 µM (MMP-13): 16% |
| CC#CCOc1ccc([S+]([O-])C(C(=O)NO)c2ccc3ccccc3c2)cc1 (stereo not drawn) [Example 115, 2-{[4-(2-butynyloxy)phenyl]sulfinyl}-2-(2-naphthyl)-N-hydroxyacetamide] | 4.11% | 141 nM |  | 11% | inhibition at 1 µM (MMP-13): 45.1% |
| CC#CCOc1ccc([S+]([O-])C(C(=O)NO)c2ccccc2OC)cc1 (stereo not drawn) [Example 99, 2-(2-methoxyphenyl)-2-{[4-(2-butynyloxy)phenyl]sulfinyl}-N-hydroxyacetamide] | 0% |  | 33.6% | 1% | IC50 ([1]; second table): 1100 nM |
| CC#CCOc1ccc([S+]([O-])[C@H](C(=O)NO)c2cccc(Br)c2)cc1 (single isomer, unassigned) [Example 105] | 9% | 106 nM | 32% | -4% |  |
| CC#CCOc1ccc(S(=O)(=O)C(C(=O)NO)C2CCOCC2)cc1 (stereo not drawn) [Example 122, 2-{[4-(2-Butynyloxy)phenyl]sulfonyl}-N-hydroxy-2-tetrahydro-2H-pyran-4-yl-acetamide] | 9% |  | 57% | 36% |  |
| CC#CCOc1ccc(S(=O)(=O)C(C(=O)NO)c2ccc(-c3cccs3)cc2)cc1 (stereo not drawn) [Example 91, 2-{[4-(2-butynyloxy)phenyl]sulfonyl}-N-hydroxy-2-[4-(2-thienyl)phenyl]acetamide] | 10% |  | 35% | 2% | inhibition at 10 µM [1]: 48% |
| CC#CCOc1ccc(SC(C(=O)NO)c2ccc(Br)cc2)cc1 (stereo not drawn) [Example 85, 2-(4-bromophenyl)-2-{[4-(2-butynyloxy)phenyl]sulfanyl}-N-hydroxyacetamide] | 6.8% | 391 nM | 30.5% | -10% |  |
| CC#CCOc1ccc(SC(C(=O)NO)c2cccc3ccccc23)cc1 (stereo not drawn) [Example 92, 2-{[4-(2-Butynyloxy)phenyl]sulfanyl}-N-hydroxy-2-(1-naphthyl)acetamide] | 8% | 931 nM | 25% | -7% |  |
| CC#CCOc1ccc(S(=O)(=O)C(C(=O)NO)C2CCN(C(=O)OC(C)(C)C)CC2)cc1 (stereo not drawn) [Example 117, Tert-butyl-4-[1-{[4-(2-butynyloxy)phenyl]sulfonyl}-2-(hydroxyamino)-2-oxoethyl]-1-piperidine carboxylate] | 22% | 190 nM | 52% | 50% |  |
| CC#CCOc1ccc(S(=O)(=O)C(C(=O)NO)c2ccc(OCC)cc2)cc1 (stereo not drawn) [Example 102] | 26% | 82 nM | 71% | 10% |  |
| CC#CCOc1ccc(S(=O)(=O)C(C(=O)NO)C2CCN(Cc3ccc(OC)cc3)CC2)cc1 (stereo not drawn) [Example 119, 2-{[4-(2-butynyloxy)phenyl]sulfonyl}-N-hydroxy-2-[1-(4-methoxybenzyl)-4-piperidinyl] acetamide] | 9% | 263 nM | 50% | 30% |  |
| CC#CCOc1ccc(S(=O)(=O)C(C(=O)NO)c2ccc(Br)cc2)cc1 (stereo not drawn) [Example 88, 2-(4-bromophenyl)-2-{[4-(2-butynyloxy)phenyl]sulfonyl}-N-hydroxyacetamide] | 20% | 226 nM |  | 4% | inhibition at 1 µM (MMP-13): 21% |
| CC#CCOc1ccc(OCCC(=O)NO)cc1 [Example 9, 3-(4-But-2-ynyloxy-phenoxy)-N-hydroxy-propionamide] |  |  |  |  | IC50 (MMP-1): 10000 nM; IC50 ([1]; Table 1): 30 nM; THP (% inhibition) (THP-1 cells): 16% |
| CC#CCOc1ccc(S(=O)(=O)C(CCCCCC)C(=O)NO)cc1 (stereo not drawn) [Example 5, 2-(4-But-2-ynyloxy-benzenesulfonyl)-octanoic acid hydroxamide] |  |  |  |  | IC50 (MMP-1; read-out: MMP1 IC50, Table 1): 10000 nM; THP (% inhibition) (THP-1 cells): 6% |

The next lines start with results.

| inhibition at 10 µM (MMP-1) | IC50 [1, 2] | inhibition at 10 µM (MMP-13) | SMILES | inhibition at 3 µM (THP-1 cells) | further results |
| --- | --- | --- | --- | --- | --- |
| 5.6% | 495 nM |  | CC#CCOc1ccc(S(=O)(=O)C(C(=O)NO)c2ccc3ccccc3c2)cc1 (stereo not drawn) [Example 116, 2-{[4-(2-butynyloxy)phenyl]sulfonyl}-2-(2-naphthyl)-N-hydroxyacetamide] | 7% | inhibition at 1 µM (MMP-13): 33.6% |
| 9.4% | 133 nM | 36.4% | CC#CCOc1ccc(SC(C(=O)NO)c2cccc(Cl)c2)cc1 (stereo not drawn) [Example 83, 2-{[4-(2-butynyloxy)phenyl]sulfanyl}-2-(3-chlorophenyl)-N-hydroxyacetamide] | 0% |  |
| 3.5% |  | 30.5% | CC#CCOc1ccc(SC(C(=O)NO)c2ccc3ccccc3c2)cc1 (stereo not drawn) [Example 114, 2-{[4-(2-Butynyloxy)phenyl]sulfanyl}-2-(2-naphthyl)-N-hydroxyacetamide] | 12% | inhibition at 10 µM [1]: 40.9% |
| 4.8% |  |  | CC#CCOc1ccc(SC(C(=O)NO)C2CCCCC2)cc1 (stereo not drawn) [Example 73, 2-{[4-(2-butynyloxy)phenyl]sulfanyl}-2-cyclohexyl-N-hydroxyacetamide] | 0% |  |
| 0% | 617 nM | 5% | CC#CCOc1ccc(SC(C(=O)NO)c2ccc(-c3cccs3)cc2)cc1 (stereo not drawn) [Example 89, 2{[4-(2-butynyloxy)phenyl]sulfanyl}-N-hydroxy-2-[4-(2-thienyl)phenyl]acetamide] | 2% |  |
| 10% |  |  | CC#CCOc1ccc(S(=O)(=O)C(C(=O)NO)c2cccc(Cl)c2)cc1 (stereo not drawn) [Example 84, 2-{[4-(2-butynyloxy)phenyl]sulfonyl}-2-(3-chlorophenyl)-N-hydroxyacetamide] | -7% | inhibition at 1 µM (MMP-13): 23% |
| 24% | 88.5 nM |  | CC#CCOc1ccc(S(=O)(=O)C(C(=O)NO)C2CCN(C(=O)c3ccccc3)CC2)cc1 (stereo not drawn) [Example 120, 2-(1-benzoyl-4-piperidinyl)-2-{[4-(2-butynyloxy)phenyl]sulfonyl}-N-hydroxyacetamide] | 63% | inhibition at 1 µM (MMP-13): 51% |

Source: patent publication EP1147080B1 (Wyeth Holdings Corporation, priority 1999, dated 2000)
